The subject of assay [1] is Rac1. The experiment in a line: Rac1 ubiquitination, Duolink in situ proximity assay in HUVECs. It counts as cell-based, human. To be noted: HUVEC, lactacystin or MG-132 pretreatment, DAL 10 μM 24 hours. How it is done:
HUVEC cells were treated with 10 μM of DAL for 24 hours and then lysed. A western blot with anti-human Rac1 antibody is shown on top panel while the bottom panel represents a loading control. […] To enhance ubiquitination events, HUVEC cells were pretreated with the proteasome inhibitors lactacystin (2.5 mM) or MG-132 (0.2 mM) for one hour and subsequently treated with DAL (10 μM) of DAL for 24 hours. Duolink in situ was used for the detection of ubiquitinated Rac1 in DAL treated and untreated HUVEC cells. For the two Duolink PLA probes, primary mouse antibodies raised against human Rac1 and primary rabbit anti-ubiquitin were used. Fluorescent spots represent ubiquitinated Rac1. The nuclei with additionally stained DAPI.
However, protein levels of Rac1 were reduced after DAL treatment (FIG. 6B). Next, it was assessed whether DAL can enhance Rac1 ubiquitination and therefore promote or speed up degradation (31-34). For the detection of Rac1 ubiquitination in HUVECs, Rac1-ubiquitin binding in situ was identified using a Duolink molecular proximity assay. In this assay, molecules thought to interact are targeted with fluorescent antibodies in situ, and individual interactions generate a signal detectable by microscopy only if secondary antibodies are located in close proximity to each other. […]

The target in assay [2] is T1, IDO (Homo sapiens, UniProt P14902).
T1 construct: expressed in transfected cells; host or cells: HEK 293
T1 sequence (P14902 whole entry): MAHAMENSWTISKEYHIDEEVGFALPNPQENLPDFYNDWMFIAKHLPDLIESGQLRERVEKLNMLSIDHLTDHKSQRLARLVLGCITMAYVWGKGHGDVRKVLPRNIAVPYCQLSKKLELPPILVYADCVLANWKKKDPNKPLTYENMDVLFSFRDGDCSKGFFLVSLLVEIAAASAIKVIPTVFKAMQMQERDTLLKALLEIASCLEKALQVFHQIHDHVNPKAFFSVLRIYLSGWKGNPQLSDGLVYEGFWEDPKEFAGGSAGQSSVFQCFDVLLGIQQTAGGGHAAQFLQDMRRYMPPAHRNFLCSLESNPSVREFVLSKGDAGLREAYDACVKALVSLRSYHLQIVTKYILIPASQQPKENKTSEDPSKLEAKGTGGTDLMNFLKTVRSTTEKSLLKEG
The experiment in a line: IDO activity in HEK 293 cells expressing IDO (kynurenine, spectrophotometric). It counts as cell-based. The settings on record: kynurenine readout, 10-dose threefold dilutions. How it is done:
The IDO activity was analyzed by the presence of kynurenine with a spectrophotometric assay. DAL was tested in a 10-dose IC50 mode with threefold serial dilutions (0.1 μM, 0.3 μM, 0.9 μM, 2.7 μM, 8.1 μM, 24.3 μM, 72.9 μM, 218.7 μM, 656 μM and 2000 μM). […] DAL binds concurrently with the tryptophan substrate (Trp) and prevents the closure of the binding site lid that is critical for the reaction catalysis.
To determine whether DAL is an immuno-modulator, the effect of DAL on IDO activity was measured. To monitor IDO enzymatic activity, HEK 293 cells were engineered to express IDO and treated with DAL in a 10-dose IC50 mode with threefold serial dilutions. The IDO activity was analyzed by the presence of kynurenine (the first stable catabolite downstream of IDO) with a spectrophotometric assay (Katz et al., 2008; Littlejohn et al., 2000). […] Because DAL inhibits recombinant purified IDO in the enzymatic assay, it is likely that DAL physically interacts with IDO1, forming a complex that represses IDO1 activity. To elucidate a possible structural basis for this inhibition, comparative modeling and molecular docking were used (FIGS. 9A-9D). […] It was therefore assessed that if lid closure may be a critical step for the efficient reaction catalysis by IDO. […]

In assay [3] the target is T2, Rac1 (Homo sapiens, UniProt P63000).
T2 construct: endogenous in cells; host or cells: HUVEC
The experiment in a line: Rac1 activation pull-down assay (PAK-PBD) in HUVECs. The format is cell-based. To be noted: various concentrations 30 minutes, VEGF stimulated. How it is done:
Rac1 and cdc42 activities were measured with a Rac1 (BK035) activation assay biochem kit (Cytoskeleton) according to the manufacturer protocol. In brief, human umbilical vein endothelial cells (HUVECs) were bovine brain extract-starved for 12 hours in 1% FBS-EGM (Lonza) and pretreated with various concentrations of DAL for 30 minutes at 37° C. The HUVECs were then stimulated with VEGF at […] for 15 minutes at 37° C. After stimulation, the cells were immediately incubated on ice, washed twice with PBS, and lysed with lysis buffer. The lysates were pre-cleared and added with 15 μl of PAK-PBD beads for pull-down of activated Rac1 or cdc42. After rocking at 4° C. for 1 hour, the beads were washed once and boiled at 100° C. for 2 minutes. The protein lysates were then resolved in a 8-16% gradient gel (Invitrogen) and transferred to a PVDF membrane. Primary antibodies (anti-Rac1, 1:1000, cytoskeleton or anti-cdc42, 1:1000, cell signaling) were added to bind to the protein overnight at 4° C., followed by incubation with HRP-conjugated secondary antibodies. Protein activity was measured by the standard ECL method (Amersham).
Without wishing to be bound by theory, DAL brings about its antivascular effects by destabilizing cell adhesion through the actin cytoskeleton. […] Therefore, potential targets of DAL in signaling pathways involved in actin remodeling were evaluated. […]

pIC50: −log10 of the molar value. “Also recorded” adds a separate entry of the source.

With `CC1(C)C=CC2=C(O1)C(=O)c1ccccc1C2=O` [DAL, dehydro-alpha-lapachone], the Rac1 ubiquitination entry in assay [1] is “more ubiquitinated Rac1 protein; also recorded: increases”. Moreover, the pIC50 in assay [2] is around 6.52. For the same molecule, the Rac1 activity entry in assay [3] was “decreased Rac1 activity in a concentration-dependent manner”.

Usually pIC50 stands for the IC50 on a negative log10 scale, so that one unit is a factor of ten.

Source of the values: patent US20140161720A1, “TREATMENT OF ANGIOGENIC- OR VASCULAR-ASSOCIATED DISEASES” (THE GENERAL HOSPITAL CORPORATION, priority 2011, published 2014).
